Experimental data from paper PMC10584170, “Machine learning-based phenotypic imaging to characterise the targetable biology of Plasmodium falciparum male gametocytes for the development of transmission-blocking antimalarials” (PLOS Pathogens, 2023).

Assays:
[1] = test system: P. falciparum male gametocytes; experiment: P. falciparum Dual Gamete Formation Assay (PfDGFA), male readout (exflagellation); type: cell-based, Plasmodium falciparum NF54; conditions: for Average inhibition male (%): average of replicates; for % inhibition male (individual replicates) R1: replicate R1; for % inhibition male (individual replicates) R3: replicate R3; for % inhibition male (individual replicates) R4: replicate R4; for Activity: hit = >50% inhibition in male or female readout in at least 3 replicates, 0 = no class assigned
Procedure, shortened: (§1)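 NF54 mature gametocytes (d14), cpd 24 h 37°C hypoxic gas; trigger: xanthurenic acid ookinete medium + Cy3 anti-Pfs25, 4°C 4 min → 28°C 4 min. Male: exflagellation centres, brightfield x6. Female: Pfs25+ gametes, fluorescence, +24 h 28°C dark.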

[2] = test system: P. falciparum female gametocytes; experiment: P. falciparum Dual Gamete Formation Assay (PfDGFA), female readout (Pfs25-positive female gametes); type: cell-based, Plasmodium falciparum NF54; conditions: for Average inhibition female (%): average of replicates; for % inhibition female (individual replicates) R1: replicate R1; for % inhibition female (individual replicates) R3: replicate R3; for % inhibition female (individual replicates) R4: replicate R4
Procedure, shortened: as §1

[3] = 2µM, 24h preincubation with gametocytes
[4] = 2µM, 24h preincubation with gametocytes prior to induction of gametogenesis
[5] = 2µM, 24h preincubation, number of replicates with >50% inhibition in the male readout
[6] = 2µM, 24h preincubation, number of replicates with >50% inhibition in the female readout
[7] = PfDGFA at 2µM, 24h preincubation with gametocytes prior to induction of gametogenesis
[8] = PfDGFA at 2µM, 24h preincubation
[9] = PfDGFA at 2µM, 24h preincubation with gametocytes
[10] = 2µM, 24h preincubation, hits selected on >50% inhibition in the male readout across replicates
[11] = 2µM, 24h preincubation, hits selected on >50% inhibition in the female readout across replicates

| Structure (SMILES) | Average inhibition male (%) [1, 4] [%] | % inhibition male (individual replicates) R1 [1, 4] [%] | % inhibition male (individual replicates) R3 [1, 4] [%] | % inhibition male (individual replicates) R4 [1, 4] [%] | Average inhibition female (%) [2, 4] [%] | % inhibition female (individual replicates) R1 [2, 4] [%] | % inhibition female (individual replicates) R3 [2, 4] [%] | % inhibition female (individual replicates) R4 [2, 4] [%] | % inhibition male (individual replicates) R1 [1, 7] [%] | % inhibition male (individual replicates) R4 [1, 7] [%] | Average inhibition male (%) [1, 8] [%] | % inhibition female (individual replicates) R1 [2, 7] [%] | % inhibition female (individual replicates) R3 [2, 7] [%] | % inhibition female (individual replicates) R4 [2, 7] [%] | Average inhibition female (%) [2, 8] [%] | HitlevelM [1, 10] | Activity [1, 8] | HitlevelF [2, 11] | further results |
| --- | --- | --- | --- | --- | --- | --- | --- | --- | --- | --- | --- | --- | --- | --- | --- | --- | --- | --- | --- |
| CCCN1CCN(CCNc2c3ccccc3nc3ccccc23)CC1 [TCMDC-137549] |  |  |  |  |  |  |  |  |  |  |  |  |  |  |  |  |  |  | Average inhibition male (%) [1, 3]: 95.7%; % inhibition male (individual replicates) R1 [1, 3]: 96.4%; % inhibition male (individual replicates) R3 [1, 3]: 92.4%; % inhibition male (individual replicates) R4 [1, 3]: 99.6%; Average inhibition female (%) [2, 3]: 13.4%; % inhibition female (individual replicates) R1 [2, 3]: 14.9%; % inhibition female (individual replicates) R3 [2, 3]: 20.2%; % inhibition female (individual replicates) R4 [2, 3]: 28.7% |
| Br.CCCCCCCNCCNc1cc(C)nc2ccccc12 [TCMDC-137556] | 11.5 | 12.4 | 4.0 | 8.2 | 18.1 | 25.7 | 0.5 | 18.7 |  |  |  |  |  |  |  |  |  |  | HitlevelM [1, 5]: 0; HitlevelF [2, 6]: 0 |
| COc1cccc2c(O)c(CNC3CCCCC3)ccc12.Cl [TCMDC-137595] |  |  |  |  |  |  |  |  | -3.5 | 4.2 | 3.3 | -8.7 | -13.9 | -3.5 | -7.6 |  |  |  | % inhibition male (individual replicates) R3 [1, 7]: 3.4% |
| COc1ccc(CNCCCCCCNCc2ccc(OC)c3ccccc23)c2ccccc12.Cl [TCMDC-137631] |  |  |  |  |  |  |  |  |  |  |  |  |  |  |  |  |  |  | Average inhibition male (%) [1, 9]: 83.3%; % inhibition male (individual replicates) R1 [1, 9]: 71.0%; % inhibition male (individual replicates) R3 [1, 9]: 73.6%; % inhibition male (individual replicates) R4 [1, 9]: 100.9%; HitlevelM ([1]; number of replicates with >50% inhibition in the male readout, 2µM): 4; Average inhibition female (%) [2, 9]: 47.3%; % inhibition female (individual replicates) R1 [2, 9]: 36.3%; % inhibition female (individual replicates) R3 [2, 9]: 33.7%; % inhibition female (individual replicates) R4 [2, 9]: 34.7%; HitlevelF ([2]; number of replicates with >50% inhibition in the female readout, 2µM): 1 |
| Cc1nc2nc(N)nc(N)c2c(C)c1Cc1cccc(C#N)c1.Cl [TCMDC-137646] |  |  |  |  |  |  |  |  | 10.9 | 21.2 | 19.8 | -3.5 | -14.6 | 5.5 | -8.2 |  |  |  | % inhibition male (individual replicates) R3 [1, 7]: 34.4% |
| Cc1ccc(Cc2c(C)nc3nc(N)nc(N)c3c2C)cc1.Cl [TCMDC-137657] |  |  |  |  |  |  |  |  | 13.2 | 13.4 | 14.9 | -6.6 | 8.8 | -7.7 | -3.5 |  |  |  | % inhibition male (individual replicates) R3 [1, 7]: 20.3% |
| Cc1nc2nc(N)nc(N)c2c(C)c1Cc1ccccc1Cl.Cl [TCMDC-137668] | 0.635 | 24.9 | -5.5 | -27.1 | 9.8 | 18.7 | -14.7 | 32.6 |  |  |  |  |  |  |  | 0 | 0 | 0 |  |
| CC(C)N(Cc1cnc2nc(N)nc(N)c2n1)c1ccc(Cl)c(Cl)c1 [TCMDC-137675] |  |  |  |  |  |  |  |  | 8.1 | -34.5 | -1.6 | 8.3 | -2.9 | 6.8 | 1.4 |  |  |  | % inhibition male (individual replicates) R3 [1, 7]: 1.6% |
| COc1ccc(N(C)Cc2cnc3nc(N)nc(N)c3n2)cc1 [TCMDC-137682] |  |  |  |  |  |  |  |  | 16.6 | -18.5 | 5.0 | 1.5 | 1.9 | 1.8 | 3.6 |  |  |  |  |
| CCCc1cc(Cc2cnc(N)nc2N)cc(CCC)c1O.Cl [TCMDC-137695] |  |  |  |  |  |  |  |  | 13.3 | -24.5 | -1.8 | -0.04 | -0.32 | -11.2 | -4.4 |  |  |  | % inhibition male (individual replicates) R3 [1, 7]: -2.6% |
| Cc1cc(N2C(N)=NC(N)=NC2(C)C)ccc1Cl.Cl [TCMDC-137705] | -12.7 | 23.4 | -17.5 | -53.8 | 4.4 | 16.7 | -1.9 | -1.7 |  |  |  |  |  |  |  | 0 | 0 | 0 |  |
| Cc1ccc(N2C(N)=NC(N)=NC2(C)C)cc1Cl.Cl [TCMDC-137708] | -13.6 | 11.4 | -5.0 | -55.8 | 15.0 | 12.7 | 7.1 | 19.9 |  |  |  |  |  |  |  | 0 | 0 | 0 |  |
| CCCCCc1ccc(N2C(N)=NC(N)=NC2(C)C)cc1.Cl [TCMDC-137709] | 2.5 | 18.2 | 6.4 | -27.8 | 8.1 | 15.2 | -7.7 | 22.0 |  |  |  |  |  |  |  | 0 | 0 | 0 |  |
| CCCCCOc1ccc(N2C(N)=NC(N)=NC2(C)C)cc1.Cl [TCMDC-137711] | -17.3 | 6.1 | -21.6 | -48.5 | 10.0 | 16.6 | -26.0 | 23.4 |  |  |  |  |  |  |  | 0 | 0 | 0 |  |
| CC(C)(C)c1ccc(N2C(N)=NC(N)=NC2(C)C)cc1.Cl [TCMDC-137713] | -3.6 | 17.2 | 2.2 | -36.5 | 20.6 | 16.4 | 30.6 | 16.4 |  |  |  |  |  |  |  |  |  |  | HitlevelM [1, 5]: 0; HitlevelF [2, 6]: 0 |
| CCc1ccc(N2C(N)=NC(N)=NC2(C)C)cc1.Cl [TCMDC-137714] | 9.1 | 34.5 | 9.3 | -34.5 | 7.9 | 15.9 | 0.5 | 12.9 |  |  |  |  |  |  |  | 0 | 0 | 0 |  |
| CCCC(C)c1ccc(N2C(N)=NC(N)=NC2(C)C)cc1.Cl (stereo not drawn) [TCMDC-137715] |  |  |  |  |  |  |  |  | 8.4 | -43.6 | -6.3 | -4.9 | 0.05 | 1.4 | -2.9 |  |  |  |  |
| CN1CCN(CCNc2c3ccccc3nc3c2ccc2ccccc23)CC1.Cl [TCMDC-137723] | -12.0 | -27.6 | -0.85 | 0.03 | 18.4 | 9.6 | 26.6 | 23.3 |  |  |  |  |  |  |  |  |  |  | HitlevelM [1, 5]: 0; HitlevelF [2, 6]: 0 |
